Source: US11186588B2 (AYUMI PHARMACEUTICAL CORPORATION, priority 2017, dated 2021)

How the values were obtained:
[1] = biological target: Recombinant BRD4 (44-168) protein (Homo sapiens (Human), UniProt O60885); experiment: BRD4-H4KAc4 binding assay (amplified luminescence proximity homogeneous assay, AlphaScreen); settings: 10 uM
Description: In order to evaluate BRD4 inhibitory activity of the present compounds, BRD4-H4KAc4 binding assay was carried out by an amplified luminescence proximity homogeneous assay. The specific method is described below.
H4KAc4 peptide (available from Toray Research Center, Inc., sequence SGRGK(Ac)GGK(Ac)GLGK(Ac)GGAK(Ac)RHR-K(Biotin)-NH2) was dissolved in 1×Assay buffer to prepare 1 mM H4KAc4 peptide stock solution.
N-terminal His tag/C-terminal FLAG tag-fused type Recombinant BRD4 (44-168) protein (available from Active Motif, Cat No. 31380) was diluted with 1×Assay buffer to 1,250-fold to prepare 250 nM BRD4 solution.
1% DMSO solution (control) and 2 μL of each compound solution in each concentration were added to each well of AlphaPlate-384 (from PerkinElmer, Cat No. 6008350). Next, 2 μL of 250 nM BRD4 solution was added to each well of AlphaPlate-384. Further, 2 μL of 250 nM H4KAc4 peptide solution was added to each well of AlphaPlate-384. After addition of the 250 nM H4KAc4 peptide solution, the mixture was allowed to stand at room temperature under light shielding for 60 minutes, and 4 μL of AlphaScreen beads were added to each well of AlphaPlate-384. After addition of the AlphaScreen beads, the mixture was allowed to stand at room temperature under light shielding for 60 minutes, emission at 520-620 nm upon excitation at 680 nm was detected by EnVision multilabel counter (from PerkinElmer), and binding of BRD4 and H4KAc4 was detected. Incidentally, the evaluation of each compound was carried out in duplicate (2 well per 1 compound).
(§1) The BRD4 inhibition rate (%) was calculated by the following equation using Microsoft EXCEL 2010. BRD4 inhibition rate (%)=100−{(luminescence intensity average value of each compound added well)−(average value of luminescence intensity of blank well))/(average value of luminescence intensity of control well)−(average value of luminescence intensity of blank well)}×100

NF-κB = NF-κB reporter gene assay (TNF-α stimulated A549/NF-κB-luc cells); format: cell-based; settings: Homo sapiens, TNF-α stimulation
Description: In order to evaluate NF-κB inhibitory activity of the present compounds, NF-κB reporter gene assay was carried out. The specific method is described below.
Gene recombinant human TNF-α (available from R&D systems, Cat No. 210-TA) was dissolved in D-PBS(−) (available from Wako Pure Chemical Industries, Ltd., Cat No. 293-72601) to prepare 100 μg/mL of TNF-α solution stock solution. 100 μg/mL of the TNF-α solution stock solution was diluted with the culture medium to prepare 10 ng/mL of TNF-α solution.
A549/NF-κB-luc cells (available from Panomics, Cat No. LR0051) were prepared at 375,000 cells/mL in the culture medium. The 375,000 cells/mL A549/NF-κB-luc cell suspension was seeded at 80 μL each on a white 96-well plate (available from Greiner, Cat No. 655073). One hour after seeding the cells, 10 μL of 2% DMSO solution (control) and each compound solution in each concentration were added to each well of the 96-well plate. One hour after the addition of each compound solution, 10 ng/mL of the TNF-α solution (10 μL) was added to each well of the 96-well plate. Three hours after the addition of 10 ng/mL of the TNF-α solution, 100 μL of Steady-Glo reagent (available from Promega, Cat No. E2510) was added to each well of the 96-well plate. After 30 to 90 minutes of the addition of the Steady-Glo reagent, the luminescence intensity of each well was detected by EnVision multilabel counter (available from PerkinElmer).
as §1, with “NF-κB” for “The BRD4”, “NF-κB” for “BRD4”, “well)}×100 In addition, IC50 values were calculated from the calculated NF-κB inhibition rate (%) using curve fitting software XLfit (available from IDBS).” for “well)}×100”

inhibition at 10 µM [1] [%]	IC50 (NF-κB) [nM]	Structure (SMILES)
100	51.9	Cc1sc2c(c1C)C(c1ccc(Cl)cc1)=NN(Cc1ccccc1)c1nnc(C)n1-2 [Example 3, 6-benzyl-4-(4-chlorophenyl)-2,3,9-trimethyl-6H-thieno[2,3-e][1,2,4]triazolo[3,4-c][1,2,4]triazepine]
100	1050	Cc1sc2c(c1C)C(c1ccc(Cl)cc1)=NN(Cc1ncccc1Cl)c1nnc(C)n1-2 [Example 24, 4-(4-chlorophenyl)-6-((3-chloropyridin-2-yl)methyl)-2,3,9-trimethyl-6H-thieno[2,3-e][1,2,4]triazolo[3,4-c][1,2,4]triazepine]
100	1950	Cc1sc2c(c1C)C(c1ccc(Cl)cc1)=NN(Cc1cccnc1C#N)c1nnc(C)n1-2 [Example 77, 3-((4-(4-chlorophenyl)-2,3,9-trimethyl-6H-thieno[2,3-e][1,2,4]triazolo[3,4-c][1,2,4]triazepin-6-yl)methyl)picolinonitrile]
100	620	Cc1sc2c(c1C)C(c1ccc(Cl)cc1)=NN(Cc1cncc(Cl)c1)c1nnc(C)n1-2 [Example 39, 4-(4-chlorophenyl)-6-((5-chloropyridin-3-yl)methyl)-2,3,9-trimethyl-6H-thieno[2,3-e][1,2,4]triazolo[3,4-c][1,2,4]triazepine]
100	144	Cc1sc2c(c1C)C(c1ccc(Cl)cc1)=NN(Cc1cccc(C(F)(F)F)c1)c1nnc(C)n1-2 [Example 18, 4-(4-chlorophenyl)-2,3,9-trimethyl-6-(3-(trifluoromethyl)benzyl)-6H-thieno[2,3-e][1,2,4]triazolo[3,4-c][1,2,4]triazepine]
96.6	1320	Cc1sc2c(c1C)C(c1ccc(Cl)cc1)=NN(CCc1ccccc1)c1nnc(C)n1-2 [Example 19, 4-(4-chlorophenyl)-2,3,9-trimethyl-6-phenethyl-6H-thieno[2,3-e][1,2,4]triazolo[3,4-c][1,2,4]triazepine]
100	233	Cc1ccc(CN2N=C(c3ccc(Cl)cc3)c3c(sc(C)c3C)-n3c(C)nnc32)cc1 [Example 13, 4-(4-chlorophenyl)-2,3,9-trimethyl-6-(4-methylbenzyl)-6H-thieno[2,3-e][1,2,4]triazolo[3,4-c][1,2,4]triazepine]
100	896	COc1ccc(CN2N=C(c3ccc(Cl)cc3)c3cc(C)sc3-n3c(C)nnc32)cc1 [Example 65, 4-(4-chlorophenyl)-6-(4-methoxybenzyl)-2,9-dimethyl-6H-thieno[2,3-e][1,2,4]triazolo[3,4-c][1,2,4]triazepine]

Second part, the compound before the results:

Structure (SMILES)	inhibition at 10 µM [1] [%]	IC50 (NF-κB) [nM]
Cc1sc2c(c1C)C(c1ccc([N+](=O)[O-])cc1)=NN(Cc1cccnc1)c1nnc(C)n1-2 [Example 70, 2,3,9-trimethyl-4-(4-nitrophenyl)-6-(pyridin-3-ylmethyl)-6H-thieno[2,3-e][1,2,4]triazolo[3,4-c][1,2,4]triazepine]	100	1830
Cc1sc2c(c1C)C(c1ccc(Cl)cc1)=NN(Cc1cccc(Cl)c1)c1nnc(C)n1-2 [Example 16, 6-(3-chlorobenzyl)-4-(4-chlorophenyl)-2,3,9-trimethyl-6H-thieno[2,3-e][1,2,4]triazolo[3,4-c][1,2,4]triazepine]	100	77.5
COc1cccc(CN2N=C(c3ccc(Cl)cc3)c3c(sc(C)c3C)-n3c(C)nnc32)c1 [Example 6, 4-(4-chlorophenyl)-6-(3-methoxybenzyl)-2,3,9-trimethyl-6H-thieno[2,3-e][1,2,4]triazolo[3,4-c][1,2,4]triazepine]	100	86.4
COc1ccc(CN2N=C(c3ccc(Cl)cc3)c3ccsc3-n3c(C)nnc32)cc1 [Example 58, 4-(4-chlorophenyl)-6-(4-methoxybenzyl)-9-methyl-6H-thieno[2,3-e][1,2,4]triazolo[3,4-c][1,2,4]triazepine]	100	728
COc1ccccc1CN1N=C(c2ccc(Cl)cc2)c2c(sc(C)c2C)-n2c(C)nnc21 [Example 34, 4-(4-chlorophenyl)-6-(2-methoxybenzyl)-2,3,9-trimethyl-6H-thieno[2,3-e][1,2,4]triazolo[3,4-c][1,2,4]triazepine]	100	612
Cc1sc2c(c1C)C(c1ccc(Cl)cc1)=NN(Cc1cccc(N(C)C)c1)c1nnc(C)n1-2 [Example 55, 3-((4-(4-chlorophenyl)-2,3,9-trimethyl-6H-thieno[2,3-e][1,2,4]triazolo[3,4-c][1,2,4]triazepin-6-yl)methyl)-N,N-dimethylaniline]	100	2760
Cc1sc2c(c1C)C(c1ccc(Cl)cc1)=NN(Cc1cc(Cl)ccn1)c1nnc(C)n1-2 [Example 40, 4-(4-chlorophenyl)-6-((4-chloropyridin-2-yl)methyl)-2,3,9-trimethyl-6H-thieno[2,3-e][1,2,4]triazolo[3,4-c][1,2,4]triazepine]	100	699
Cc1sc2c(c1C)C(c1ccc(Cl)cc1)=NN(Cc1ccc(F)nc1)c1nnc(C)n1-2 [Example 26, 4-(4-chlorophenyl)-6-((6-fluoropyridin-3-yl)methyl)-2,3,9-trimethyl-6H-thieno[2,3-e][1,2,4]triazolo[3,4-c][1,2,4]triazepine]	100	12.3
Cc1sc2c(c1C)C(c1ccc(Cl)cc1)=NN(Cc1ccc(Cl)cn1)c1nnc(C)n1-2 [Example 36, 4-(4-chlorophenyl)-6-((5-chloropyridin-2-yl)methyl)-2,3,9-trimethyl-6H-thieno[2,3-e][1,2,4]triazolo[3,4-c][1,2,4]triazepine]	100	401
Cc1sc2c(c1C)C(c1ccc(Cl)cc1)=NN(Cc1ncccc1F)c1nnc(C)n1-2 [Example 23, 4-(4-chlorophenyl)-6-((3-fluoropyridin-2-yl)methyl)-2,3,9-trimethyl-6H-thieno[2,3-e][1,2,4]triazolo[3,4-c][1,2,4]triazepine]	100	158
COC(=O)c1ncccc1CN1N=C(c2ccc(Cl)cc2)c2c(sc(C)c2C)-n2c(C)nnc21 [Example 83, methyl 3-((4-(4-chlorophenyl)-2,3,9-trimethyl-6H-thieno[2,3-e][1,2,4]triazolo[3,4-c][1,2,4]triazepin-6-yl)methyl)picolinate]	100	2820
Cc1sc2c(c1C)C(c1cccc(Cl)c1)=NN(Cc1cccnc1)c1nnc(C)n1-2 [Example 73, 4-(3-chlorophenyl)-2,3,9-trimethyl-6-(pyridin-3-ylmethyl)-6H-thieno[2,3-e][1,2,4]triazolo[3,4-c][1,2,4]triazepine]	100	246
Cc1sc2c(c1C)C(c1ccc(Cl)cc1)=NN(Cc1ccnc(N)c1)c1nnc(C)n1-2 [Example 57, 4-((4-(4-chlorophenyl)-2,3,9-trimethyl-6H-thieno[2,3-e][1,2,4]triazolo[3,4-c][1,2,4]triazepin-6-yl)methyl)pyridin-2-amine]	100	558
Cc1sc2c(c1C)C(c1ccc(Cl)cc1)=NN(Cc1cccc(O)c1)c1nnc(C)n1-2 [Example 53, 3-((4-(4-chlorophenyl)-2,3,9-trimethyl-6H-thieno[2,3-e][1,2,4]triazolo[3,4-c][1,2,4]triazepin-6-yl)methyl)phenol]	100	2980
